Measured values from US20260263468A1 (Fundación Instituto de Investigación Sanitaria Fundación …, priority 2023, published 2026).

How the values were obtained:
[1] = tested on: K/B×N serum transfer-induced arthritis; test: Atrogenes mRNA expression (RT-PCR) in gastrocnemius; assay type: in vivo, C57BL/6J mice; details: RA+Dipy
Description: Total RNA was isolated from crushed frozen gastrocnemius using TRIzol reagent (Roche Diagnostics, Barcelona, Spain) following manufacturer's instructions. A total of 1 μg RNA was reverse transcribed with a High Capacity cDNA Reverse Transcription Kit (Applied Biosystems, San Francisco, CA, USA) at […], including the following reagents, in the same reaction: RNase Inhibitor 1 U/μL, Random Hexamers […], MgCl2 5 mM, PCR buffer II 1× and dNTPs 1 mM. Relative quantification of gene expression was performed via real-time RT-PCR on a Step One Plus (Applied Biosystems) with Power UP SYBR Green MasterMix according to the manufacturer's protocol. The primers were provided from Sigma-Aldrich according to the primer bank at https://pga.mgh.harvard.edu/primerbank/. Gene expression levels were calculated with the ΔΔCt method.

C2C12 [2] = test: cAMP concentration (ELISA); assay type: cell-based; details: myoblast, 1 μM, 5 minutes; control 0.58±0.13
Description: CAMP concentration was measured using the colorimetric cAMP ELISA kit following manufacture protocol for acetylated cell lysates (Cell Biolabs, San Diego, USA). Absorbance was measured at 450 nm using a microplate reader Tecan Spark 20M.
The CAMP signaling cascade has been linked to a delay in the onset of age-related muscle loss.

[3] = tested on: K/B×N serum transfer-induced arthritis; test: Cytokine and chemokine array in gastronemius muscle; assay type: in vivo, C57BL/6J mice; details: acute model, RA + Dipy
Description: The cytokines concentration was measured by fluorescence using GenePix 4000B following manufacture protocol for serum and frozen samples. Serum samples were used at 2-fold sample dilution. Frozen gastronemius were crushed using a mortar and a pestle cooled with liquid nitrogen. Next, gastronemius were homogenized in a sonicator and the protein isolated in the supernatant quantified with BCA assay. We used 100 μL (1 mg/ml) of total gastronemius protein for cytokine and chemokine array assay.

C2C12 [4] = details: dipyridamole 1 μM ± PSB-603 1 μM
Description: (§1) Cells were lysed with RIPA buffer and protein concentration was determined by BCA. […] Variations in intensity were expressed as % of basal (day 0) and expressed as mean±SEM. All results were calculated as a percentage of non-differentiated controls to minimize the intrinsic variation among different experiments.

C2C12 [5] = test: Western blot of PKA isoforms, pCREB, EPAC1/2; assay type: cell-based; details: 1 μM
Description: as §1
To study the CAMP signaling pathway, we analyzed the expression of PKA on its three catalytic isoforms PKAα, PKAβ and PKAγ as well as EPAC1/2. […] Tenofovir reduced its phosphorylation (154±9% tenofovir vs 247±30% control at day 4, p<0.05, FIG. 3B).

[6] = mice, dipyridamole 25 mg/Kg/day with tenofovir; cited from earlier work
C2C12 myobundles = test: C2C12 3D myobundle with IL-6 ± dipyridamole; assay type: cell-based; details: IL-6 2.5 μg/ml ± dipyridamole 1 μM, 14 days; Sham 890±39
Source text: C2C12 myobundles were fabricated following the protocol described by Bursac group (see references in ref. 44). Briefly, molds of polydimethylsiloxane (PDMS) designed for 12-well plates were created from Teflon masters with semicylindrical wells. These molds were sterilized, coated with 0.2% (w/v) Pluronic F-127 (Invitrogen) to prevent tissue adhesion, and paired with laser-cut Cerex frames (9×9 mm^2, 1-mm-wide rim) for myobundle attachment. The frames served as an anchor and guide during hydrogel compaction, ensuring uniaxial cell alignment. C2C12 cells were encapsulated in a hydrogel solution, including bovine fibrinogen (Sigma-Aldrich), matrigel (Corning), bovine thrombin (Sigma-Aldrich), and growth medium as concentration of bursac group indicates Referencias. The cell/hydrogel mixture was polymerized in the PDMS molds, and myobundles were cultured in a humidified chamber at 37° C., in 95% air and 5% CO2. After 4 days, the frames with myobundles were suspended in DM with treatments. DM and treatments are replaced every two days. GM and DM media contained 6-aminocaproic acid to reduce fibrinolysis. […] After the 14 days of treatment a bright-field photograph was taken to analyze the thickness of the fiber at its midpoint, and subsequently, they were embedded in OCT medium. […]

C2C12 [7] = test: Western blot of adenosine receptors, P2X7 and Panx-1 during differentiation; assay type: cell-based; details: 1 μM
Description: as §1
The expression of adenosine receptors, P2X7 receptor and Panx-1 channel was analyzed during myoblast differentiation.

SMILES: OCCN(CCO)c1nc(N2CCCCC2)c2nc(N(CCO)CCO)nc(N3CCCCC3)c2n1 [dipyridamole, 2,6-bis(Diethanolamino)-4,8-dipiperidinopyrimido[5,4-d]pyrimidine]
- Atrogin-1 mRNA expression ([1]; RA 5.40±1.37, Sham 1.94±0.33): 0.29±0.09
- Murf1 mRNA expression ([1]; RA 8.71±2.75, Sham 1.60±0.35): 1.60±0.22
- cAMP levels (C2C12 [2]): 0.85±0.17
- Muscle IL-1α [3]: 3.5 ± 0.2 pg/mL
- Muscle IL-1β [3]: 13.9 ± 1.9 $$ pg/ml
- Muscle IL-2 [3]: 8 ± 2.8 pg/mL
- Muscle IL-3 [3]: 1 ± 0.2 pg/mL
- Muscle IL-4 [3]: 23 ± 1.9 pg/mL
- Muscle IL-5 [3]: 5.5 ± 0.8 pg/mL
- Muscle IL-6 [3]: 6.9 ± 0.6 **/$ pg/ml
- Muscle IL-9 [3]: 13.1 ± 2.5 pg/mL
- Muscle IL-10 [3]: 32.5 ± 2.3 **/ $ pg/ml
- Muscle IL-13 [3]: 11.3 ± 0.9 pg/mL
- Muscle IL-17 [3]: 7 ± 1.3 pg/mL
- Muscle INFγ [3]: 48.7 ± 4.8 */$ pg/ml
- Muscle KC (CXCL1) [3]: 1.2 ± 0.7 pg/mL
- Muscle M-CSF [3]: 11.8 ± 1.6 pg/mL
- Muscle RANTES [3]: 4.7 ± 0.5 pg/mL
- Muscle TNF-α [3]: 24.6 ± 1.2 pg/mL
- Muscle VEGF [3]: 122 ± 12.9 pg/mL
- Muscle MCP-1 ([3]; listed as Dipy): 43.8 ± 9.9 */$ pg/ml
- Muscle MCP-1 ([3]; listed as dipy): 43.8 ± 9.9 pg/mL
- PAX7 protein expression (C2C12 [4]; 2% HS, day 1): 198±24%
- MHC protein expression (C2C12 [4]; day 1): 95±13%
- Myf5 protein expression (C2C12 [4]; day 3): 79.48±31%
- PKAα protein expression (C2C12 [4]; day 4): 358±156%
- pAMPK expression (C2C12 [4]; day 4): 284±79.8%
- pCREB (C2C12 [4]; day 4): 399.6±119.8%
- pCREB (% of basal) (C2C12 [5]; day 4, control 247±30%): 275±73%
- EPAC2 protein expression (C2C12 [5]; within differentiation): decreased
- Body weight (tenofovir-induced loss) [6]: recovered
- Myobundle thickness (C2C12 myobundles): did not lead to an alteration of the muscle fiber
- A3 receptor protein expression (C2C12 [7]; compared to control): did not change
- P2X7 protein expression (% of basal) (C2C12 [7]; day 4): 202±46%
